Results reported in patent US20050163814A1, “Granulated phosphoroamido(di) thioates” (priority 2002, published 2005).
Marks after values point to notes of the source that are not given here.

Key:
Type in all cases: physicochemical
[1] = GE Brightness of acephate powder; details: bulk powder, reflected light
Protocol: A sample of technical grade acephate crystals was obtained (Examples 1 and 3) and compared. […] Half of each sample was analyzed for brightness and particle size distribution.
Milling caused a measurable increase in the brightness of the bulk powder sample as measured by reflected light. Such an increase is visually apparent as a noticeably brighter powder when compared side-by-side under the GE Brightness test.

[2] = Crystal dimensions by visual inspection
Excerpt: The unmilled acephate from example 3 was a commercially available technical grade having elongated cylindrical shaped crystals with an average crystal length of 250-500 μm and an average width of 40-100 μm. In contrast, the acephate powder of example 4 was made of substantially cylindrical shaped crystals with an average crystal length of less than about 150 μm and an average width of less than 40 μm.

[3] = Particle size distribution (sieve openings) of acephate technical
Protocol: The other half of the Source B sample was analyzed for particle size distribution as received and with the milling according to the invention. FIG. 1 (unmilled) and FIG. 2 (milled) are graphs of the particle size distributions from the milling process. All values are in terms of weight percent of total sample that could pass through the designated sieve opening.

SMILES: COP(=O)(NC(C)=O)SC (stereo not drawn) [Ex. 1, acephate, reference compound]
- GE Brightness [1]: 87.2

SMILES: COP(=O)(NC(C)=O)SC (stereo not drawn) [Ex. 2, acephate]
- GE Brightness [1]: 88.4

SMILES: COP(=O)(NC(C)=O)SC (stereo not drawn) [Ex. 3, acephate, reference compound]
- Crystal dimensions: length ([2]; Table 4, listed as Unmilled): 100-280 μm
- Crystal dimensions: width ([2]; Table 4, listed as Unmilled): 40-50 μm
- Aspect ratio ([2]; length:width, listed as Unmilled): 2.5-5.6
- average crystal length ([2]; visual inspection): 250-500 μm
- average width ([2]; visual inspection): 40-100 μm
- GE Brightness [1]: 90.2
- Summary Particle Size Distribution, Range ([3]; Sieve Size 2.3-3.9 μm, listed as Unmilled): 14.55 wt %
- Summary Particle Size Distribution, Range ([3]; Sieve Size 4.6-16 μm, listed as Unmilled): 33.43 wt %
- Summary Particle Size Distribution, Range ([3]; Sieve Size 4.6-37 μm, listed as Unmilled): 50.51 wt %
- Summary Particle Size Distribution, Range ([3]; Sieve Size 4.6-88 μm, listed as Unmilled): 65.44 wt %
- Summary Particle Size Distribution, Range ([3]; Sieve Size 19-37 μm, listed as Unmilled): 17.08 wt %
- Summary Particle Size Distribution, Range ([3]; Sieve Size 44-88 μm, listed as Unmilled): 14.93 wt %
- Summary Particle Size Distribution, Range ([3]; Sieve Size 105-149 μm, listed as Unmilled): 4.97 wt %
- Summary Particle Size Distribution, Range ([3]; Sieve Size <1.9 μm, listed as Unmilled): 13.27 wt %
- Summary Particle Size Distribution, Range ([3]; Sieve Size <3.9 μm, listed as Unmilled): 27.83 wt %
- Summary Particle Size Distribution, Range ([3]; Sieve Size >105 μm, listed as Unmilled): 6.73 wt %
- Summary Particle Size Distribution, Range ([3]; Sieve Size >177 μm, listed as Unmilled): 1.76 wt %
- Particle Size Distribution ([3]; Size 1.9 μm, listed as Unmilled): 3.6123 weight percent
- Particle Size Distribution ([3]; Size 2.3 μm, listed as Unmilled): 1.6125 weight percent
- Particle Size Distribution ([3]; Size 2.8 μm, listed as Unmilled): 3.3402 weight percent
- Particle Size Distribution ([3]; Size 3.3 μm, listed as Unmilled): 5.0469 weight percent
- Particle Size Distribution ([3]; Size 3.9 μm, listed as Unmilled): 4.5533 weight percent
- Particle Size Distribution ([3]; Size 4.6 μm, listed as Unmilled): 2.9044 weight percent
- Particle Size Distribution ([3]; Size 5.5 μm, listed as Unmilled): 3.2481 weight percent
- Particle Size Distribution ([3]; Size 6.5 μm, listed as Unmilled): 5.7966 weight percent
- Particle Size Distribution ([3]; Size 7.8 μm, listed as Unmilled): 4.6403 weight percent
- Particle Size Distribution ([3]; Size 9.2 μm, listed as Unmilled): 4.2474 weight percent
- Particle Size Distribution ([3]; Size 11 μm, listed as Unmilled): 4.6232 weight percent
- Particle Size Distribution ([3]; Size 13 μm, listed as Unmilled): 4.6531 weight percent
- Particle Size Distribution ([3]; Size 16 μm, listed as Unmilled): 3.3203 weight percent
- Particle Size Distribution ([3]; Size 19 μm, listed as Unmilled): 3.2150 weight percent
- Particle Size Distribution ([3]; Size 22 μm, listed as Unmilled): 3.1651 weight percent
- Particle Size Distribution ([3]; Size 26 μm, listed as Unmilled): 3.7619 weight percent
- Particle Size Distribution ([3]; Size 31 μm, listed as Unmilled): 3.7231 weight percent
- Particle Size Distribution ([3]; Size 37 μm, listed as Unmilled): 3.2123 weight percent
- Particle Size Distribution ([3]; Size 44 μm, listed as Unmilled): 3.0323 weight percent
- Particle Size Distribution ([3]; Size 53 μm, listed as Unmilled): 3.3767 weight percent
- Particle Size Distribution ([3]; Size 63 μm, listed as Unmilled): 3.2501 weight percent
- Particle Size Distribution ([3]; Size 75 μm, listed as Unmilled): 2.8069 weight percent
- Particle Size Distribution ([3]; Size 88 μm, listed as Unmilled): 2.4665 weight percent
- Particle Size Distribution ([3]; Size 105 μm, listed as Unmilled): 2.0819 weight percent
- Particle Size Distribution ([3]; Size 125 μm, listed as Unmilled): 1.5293 weight percent
- Particle Size Distribution ([3]; Size 149 μm, listed as Unmilled): 1.3606 weight percent
- Particle Size Distribution ([3]; Size 177 μm, listed as Unmilled): 0.7768 weight percent
- Particle Size Distribution ([3]; Size 210 μm, listed as Unmilled): 0.4565 weight percent
- Particle Size Distribution ([3]; Size 250 μm, listed as Unmilled): 0.2321 weight percent
- Particle Size Distribution ([3]; Size 298 μm, listed as Unmilled): 0.1849 weight percent
- Particle Size Distribution ([3]; Size <1.9 μm, listed as Unmilled): 9.6625 weight percent
- Particle Size Distribution ([3]; Size >298 μm, listed as Unmilled): 0.1068 weight percent
- mean particle size ([3]; listed as Unmilled): 30.4 μm
- median particle size ([3]; listed as Unmilled): 11.7 μm
- Summary Particle Size Distribution, Cumul. ([3]; up to Sieve Size 2.3-3.9 μm, listed as Unmilled): 27.83 wt %
- Summary Particle Size Distribution, Cumul. ([3]; up to Sieve Size 4.6-16 μm, listed as Unmilled): 61.26 wt %
- Summary Particle Size Distribution, Cumul. ([3]; up to Sieve Size 19-37 μm, listed as Unmilled): 78.34 wt %
- Summary Particle Size Distribution, Cumul. ([3]; up to Sieve Size 44-88 μm, listed as Unmilled): 93.27 wt %
- Summary Particle Size Distribution, Cumul. ([3]; up to Sieve Size 105-149 μm, listed as Unmilled): 98.24 wt %
- Summary Particle Size Distribution, Cumul. ([3]; up to Sieve Size <1.9 μm, listed as Unmilled): 13.27 wt %
- Summary Particle Size Distribution, Cumul. ([3]; up to Sieve Size >177 μm, subject to rounding): ˜100* wt %
